# Laboratory results from patent US7179825B2, “Retinoic acid mimetic anilides” (Janssen Pharmaceutica N.V., priority 1997, dated 2007).
# pIC50: −log10 of the molar value.
# System: Ovariectomized rats
# Assay: Vaginal keratinization test on ovariectomized rats (Example C.2)
# Type: in vivo
# Settings: Rattus norvegicus, po, estradiol undecylate induced keratinization, per os once daily on days 1-3, active dose = 50% of rats show complete suppression, read-out: LAD (lowest active dose)
# Procedure, shortened: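 Ovariectomized rats given s.c. estradiol undecylate (100 μg per 100 g body weight in sesame oil), then oral compound once daily on days 1-3 (vehicle PEG 200). Vaginas assessed histologically one day after last dose; lowest active dose (mg/kg) is the dose giving complete keratinization suppression in 50% of rats.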
row,SMILES,minimal effective dose
1,"CC(C)C(c1ccc(NC(N)=O)cc1)n1ccnc1 (racemic) [Compound 266, (±)-4-[1-(1H-imidazol-1-yl)-2-methylpropyl]phenylurea]",> 10 mg/kg

# Same assay, conditions: estradiol undecylate induced keratinization, per os once daily on days 1-3, active dose = 50% of rats show complete suppression
row,SMILES,LAD (lowest active dose)
1,CC(C)C(c1ccc(NC(=O)C2CCCCC2)cc1)n1ccnc1 (racemic) [Compound 193],>10.00 mg/kg
2,CCCC/C(=C\c1ccccc1)C(=O)Nc1ccc(C(C(C)C)n2ccnc2)cc1 (racemic) [Compound 465],>20.00 mg/kg
3,CC(C)C(c1ccc(NC(=O)Nc2cccc([N+](=O)[O-])c2)cc1)n1ccnc1 (racemic) [Compound 737],>10.00 mg/kg
4,CCN(C(=O)/C(C)=C/c1ccccc1)c1ccc(C(C(C)C)n2ccnc2)cc1 (racemic) [Compound 422],>10.00 mg/kg
5,CC(C)C(c1ccc(NC(=O)C2CC2C)cc1)n1ccnc1 (mixture of isomers) [Compound 197],>10.00 mg/kg
6,CCC(CC)C(c1ccc(NC(=O)Cc2cccc(OC)c2)cc1)n1cncn1 (racemic) [Compound 70],5.00 mg/kg
7,CC(C)C(c1ccc(NC(=O)Nc2cccc(N)c2)cc1)n1ccnc1 (racemic) [Compound 727],>10.00 mg/kg
8,C/C(=C\c1ccccc1)C(=O)Nc1ccc(C(n2ccnc2)C(C)(C)C)cc1 (racemic) [Compound 481],10.00 mg/kg
9,CCCC(CCC)C(c1ccc(NC(=O)Cc2ccc(OC)c(OC)c2)cc1)n1cncn1 (racemic) [Compound 644],2.50 mg/kg
10,CCC(CC)C(c1ccc(NC(=O)/C(C)=C/c2ccccc2)cc1)n1ccnc1 (racemic) [Compound 478],2.50 mg/kg
11,CC(C)C(c1ccc(NC(=O)Cc2ccco2)cc1)n1ccnc1 (racemic) [Compound 235],5.00 mg/kg
12,COc1cc(CC(=O)Nc2ccc(C(C(C)C)n3ccnc3)cc2)ccc1O (stereo not drawn) [Compound 142],5.00 mg/kg
13,CCC(CC)C(c1ccc(NC(=O)CC2COc3ccccc3O2)cc1)n1ccnc1 (mixture of isomers) [Compound 26],5.00 mg/kg
14,CCC(CC)C(c1ccc(NC(=O)/C(C)=C/c2ccccc2)cc1)n1cncn1 (racemic) [Compound 2],5.00 mg/kg
15,"CCC(C(c1ccc(NC(C)=O)cc1)n1cncn1)N(C)C (single isomer, unassigned) [Compound 645]",>5.00 mg/kg
16,CC(C(=O)Nc1ccc(C(C(C)C)n2ccnc2)cc1)c1ccccc1 (stereo not drawn) [Compound 657],>10.00 mg/kg
17,"CCC(CC)C(c1ccc(NC(=O)Cc2ccc(OC)c(C)c2)cc1)n1cncn1 (single isomer, unassigned) [Compound 86]",2.50 mg/kg
18,C/C(=C\c1ccccc1)C(=O)Nc1ccc(C(CCC(C)C)n2ccnc2)cc1 (stereo not drawn) [Compound 475],>10.00 mg/kg
19,CCC(CC)C(c1ccc(NC(=O)C(O)c2ccc(C)c(C)c2)cc1)n1cncn1 (mixture of isomers) [Compound 11],>2.50 mg/kg
20,CCC(CC)C(O)(c1ccc(NC(C)=O)cc1)c1cncn1C (racemic) [Compound 772],>5.00 mg/kg
21,CC(C)C(c1ccc(NC(=O)Nc2cccc3ccccc23)cc1)n1ccnc1 (racemic) [Compound 272],>10.00 mg/kg
22,CC(C)C(c1ccc(NC(=O)Cc2cccc(O)c2)cc1)n1ccnc1 (racemic) [Compound 667],5.00 mg/kg
23,CCC(CC)C(c1ccc(NC(=O)Cc2ccc3c(c2)OCCO3)cc1)n1ccnc1 (racemic) [Compound 36],5.00 mg/kg
24,CC(=Cc1ccccc1)C(=O)Nc1ccc(C(c2ccccc2)n2ccnc2)cc1 (racemic) [Compound 445],>20.00 mg/kg
25,CC(C)/C(=C\c1ccccc1)C(=O)Nc1ccc(C(C(C)C)n2ccnc2)cc1 (stereo not drawn) [Compound 471],>10.00 mg/kg
26,C/C(=C\c1ccccc1)C(=O)Nc1ccc(C(c2ccncc2)C(C)C)cc1 (racemic) [Compound 681],>20.00 mg/kg

# System: metabolism of retinoic acid in human breast cancer cells
# Assay: Inhibition of retinoic acid (RA) metabolism (Example C.1)
# Type: cell-based
# Settings: MCF7; MCF-7 human breast cancer cells, 3H-RA as substrate; concentration needed to reduce the amount of metabolites to 50% of the control
# Procedure, shortened: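 MCF-7 cells, pre-stimulated with RA the day before, incubated with ³H-RA substrate and test compound in 1% DMSO. Polar ³H-metabolites separated from unmetabolized RA and counted by scintillation. IC50 is the concentration cutting metabolite formation to 50% of control, with blank run alongside.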
row,pIC50,SMILES
1,7.51,"CC(C)C(c1ccc(NC(N)=O)cc1)n1ccnc1 (racemic) [Compound 266, (±)-4-[1-(1H-imidazol-1-yl)-2-methylpropyl]phenylurea]"

# Same assay, conditions: MCF-7 human breast cancer cells, 3H-RA as substrate; concentration needed to reduce the amount of metabolites to 50% of the control
row,SMILES,pIC50
1,CC(C)C(c1ccc(NC(=O)C2CCCCC2)cc1)n1ccnc1 (racemic) [Compound 193],7.92
2,CCCC/C(=C\c1ccccc1)C(=O)Nc1ccc(C(C(C)C)n2ccnc2)cc1 (racemic) [Compound 465],7.30
3,CCN(C(=O)/C(C)=C/c1ccccc1)c1ccc(C(C(C)C)n2ccnc2)cc1 (racemic) [Compound 422],< 8.00
4,CC(C)C(c1ccc(NC(=O)C2CC2C)cc1)n1ccnc1 (mixture of isomers) [Compound 197],8.25
5,CCC(CC)C(c1ccc(NC(=O)Cc2cccc(OC)c2)cc1)n1cncn1 (racemic) [Compound 70],9.53
6,CC(C)C(c1ccc(NC(=O)Cc2ccco2)cc1)n1ccnc1 (racemic) [Compound 235],8.16
7,COc1cc(CC(=O)Nc2ccc(C(C(C)C)n3ccnc3)cc2)ccc1O (stereo not drawn) [Compound 142],7.51
8,CCC(CC)C(c1ccc(NC(=O)CC2COc3ccccc3O2)cc1)n1ccnc1 (mixture of isomers) [Compound 26],9.70
9,CCC(CC)C(c1ccc(NC(=O)/C(C)=C/c2ccccc2)cc1)n1cncn1 (racemic) [Compound 2],10.52
10,"CCC(CC)C(c1ccc(NC(=O)Cc2ccc(OC)c(C)c2)cc1)n1cncn1 (single isomer, unassigned) [Compound 86]",9.30
11,C/C(=C\c1ccccc1)C(=O)Nc1ccc(C(CCC(C)C)n2ccnc2)cc1 (stereo not drawn) [Compound 475],< 7.00
12,CCC(CC)C(c1ccc(NC(=O)C(O)c2ccc(C)c(C)c2)cc1)n1cncn1 (mixture of isomers) [Compound 11],8.58
13,CC(C)C(c1ccc(NC(=O)Nc2cccc3ccccc23)cc1)n1ccnc1 (racemic) [Compound 272],8.32
14,CCC(CC)C(c1ccc(NC(=O)Cc2ccc3c(c2)OCCO3)cc1)n1ccnc1 (racemic) [Compound 36],8.84
15,CC(=Cc1ccccc1)C(=O)Nc1ccc(C(c2ccccc2)n2ccnc2)cc1 (racemic) [Compound 445],6.72
16,CC(C)/C(=C\c1ccccc1)C(=O)Nc1ccc(C(C(C)C)n2ccnc2)cc1 (stereo not drawn) [Compound 471],< 7.00

# Further lines, results first:
row,pIC50,SMILES
1,8.63,CC(C)C(c1ccc(NC(=O)Nc2cccc([N+](=O)[O-])c2)cc1)n1ccnc1 (racemic) [Compound 737]
2,8.79,CC(C)C(c1ccc(NC(=O)Nc2cccc(N)c2)cc1)n1ccnc1 (racemic) [Compound 727]
3,8.55,C/C(=C\c1ccccc1)C(=O)Nc1ccc(C(n2ccnc2)C(C)(C)C)cc1 (racemic) [Compound 481]
4,9.53,CCCC(CCC)C(c1ccc(NC(=O)Cc2ccc(OC)c(OC)c2)cc1)n1cncn1 (racemic) [Compound 644]
5,8.79,CCC(CC)C(c1ccc(NC(=O)/C(C)=C/c2ccccc2)cc1)n1ccnc1 (racemic) [Compound 478]
6,8.10,"CCC(C(c1ccc(NC(C)=O)cc1)n1cncn1)N(C)C (single isomer, unassigned) [Compound 645]"
7,8.27,CC(C(=O)Nc1ccc(C(C(C)C)n2ccnc2)cc1)c1ccccc1 (stereo not drawn) [Compound 657]
8,9.84,CCC(CC)C(O)(c1ccc(NC(C)=O)cc1)c1cncn1C (racemic) [Compound 772]
9,8.80,CC(C)C(c1ccc(NC(=O)Cc2cccc(O)c2)cc1)n1ccnc1 (racemic) [Compound 667]
10,< 6.00,C/C(=C\c1ccccc1)C(=O)Nc1ccc(C(c2ccncc2)C(C)C)cc1 (racemic) [Compound 681]
